The experiment relates to T1, RsD2HGDH.
T1 construct: gene D2HGDH
It is filed as biochemical, Ralstonia solanacearum. The note with it: free enzyme; 100 µM DCIP, 200 µM PMS, 50 mM PB pH 7.0 (assay of b15), 25 °C.

Molecules are shown by their SMILES.

As a reminder, the Km is the concentration of substrate that gives half-maximal velocity. `O=C(O)CC[C@@H](O)C(=O)O` [D2HG]: the Km worked out at 433 µM.
